Measurements from paper PMC8002452, “Molecular Basis of AmpC β-Lactamase Induction by Avibactam in Pseudomonas aeruginosa: PBP Occupancy, Live Cell Binding Dynamics and Impact on Resistant Clinical Isolates Harboring PDC-X Variants” (International Journal of Molecular Sciences, 2021).

Experiments:
[1] = molecular target: T1, PBP2 (Pseudomonas aeruginosa, UniProt Q9X6V3); assay: PBP-binding affinity (IC50), bocillin FL, isolated membranes; set-up: species or system P. aeruginosa PAO1; details: PAO1 membranes 0.5 mg/mL, 30 min, 25 µM bocillin FL; read-out: Mean IC50 ± SD, PBP 2 (converted)
T1 construct: PBP-containing membranes were isolated by ultracentrifugation; endogenous in cells; host or cells: P. aeruginosa PAO1 wild type (membrane preparations or intact cells)
Protocol: (§1) PBP-binding affinity was determined using previously described methods. Briefly, P. aeruginosa PAO1 cultures grown to the midexponential phase (7.6 log10 CFU/mL) were incubated in CAMHB at 37 °C and 180 rpm, washed and centrifuged (3220× g for 10 min at 4 °C). Bacterial pellets were washed in 30 mL of PBS buffer (pH 7.5), resuspended in 10 mL of PBS and sonicated at 40% amplitude for three 2 min bursts (while immersed in an ice bath) and centrifuged at 3220× g for 15 min at 4 °C. PBP-containing membranes were isolated by ultracentrifugation at 150,000× g for 30 min at 4 °C. Total protein concentrations were measured through the Bradford method.
(§2) Subsequently, the fluorescent penicillin bocillin FL was added to a 25 μM final concentration. Labeled PBPs were denatured and separated through 4–15% SDS–polyacrylamide gel electrophoresis. Labeled PBPs were visualized using a Typhoon FLA 9500 biomolecular imager (GE Healthcare Bio-Sciences AB, Uppsala, Sweden) (excitation at 488 nm and emission at 530 nm), and binding was determined from at least three independent experiments using ImageQuant TL software v8.1.0.0 (GE Healthcare Bio-Sciences AB, Uppsala, Sweden).

[2] = molecular target: PBP4 (Pseudomonas aeruginosa, UniProt Q9HZG1); assay: as above; set-up: species or system P. aeruginosa PAO1; details: PAO1 membranes 0.5 mg/mL, 30 min, 25 µM bocillin FL; read-out: Mean IC50 ± SD, PBP 4 (converted)
Protocol: as §1, §2

[3] = molecular target: T2, PBP1a (Pseudomonas aeruginosa, UniProt Q07806); assay: as above; set-up: species or system P. aeruginosa PAO1; details: PAO1 membranes 0.5 mg/mL, 30 min, 25 µM bocillin FL; read-out: Mean IC50 ± SD, PBP 1a (converted)
T2 construct: PBP-containing membranes were isolated by ultracentrifugation; endogenous in cells; host or cells: P. aeruginosa PAO1 wild type (membrane preparations or intact cells)
Protocol: as §1, §2

[4] = molecular target: PBP5/6 (Pseudomonas aeruginosa, UniProt G3XD74); assay: as above; set-up: species or system P. aeruginosa PAO1; details: PAO1 membranes 0.5 mg/mL, 30 min, 25 µM bocillin FL; read-out: Mean IC50 ± SD, PBP 5/6 (converted)
Protocol: as §1, §2

[5] = molecular target: PBP1b (Pseudomonas aeruginosa, UniProt G3XD31); assay: as above; set-up: species or system P. aeruginosa PAO1; details: PAO1 membranes 0.5 mg/mL, 30 min, 25 µM bocillin FL
Protocol: as §1, §2

[6] = tested on: ampC mRNA in 109-E9 (CAZ/AVI-sensitive ST175 clinical isolate); assay: qRT-PCR quantification of AmpC induction; type: cell-based, P. aeruginosa; details: IPM 8, FOX 64, AVI 16 µg/mL, relative to strain basal t=0
Protocol: (§3) Samples were taken at 0, 30 and 180 min. Total RNA was extracted with the RNeasy Mini Kit (Qiagen, Hilden, Germany) and treated with TURBO DNase (Thermo Fisher Scientific, Waltham, MA, USA) to remove contaminating DNA. Samples were afterwards normalized to 50 ng/µL.
(§4) Normalized samples were then used for one-step reverse transcription and real-time PCR amplification using the QuantiTect SYBR green qRT-PCR kit (Qiagen, Hilden, Germany) in a CFX Connect Real-Time PCR System (Bio-Rad, Hercules, California, USA). Previously described primer pairs ACrnaF/ACrnaR and rpsL-1/rpsL-2 were used for the amplification of ampC and housekeeping gene rpsL, respectively. The mean values of relative mRNA expression (2^−ΔΔCt) obtained from at least two independent biological replicates and duplicate technical replicates were considered.

[7] = tested on: ampC mRNA in wild-type PAO1; assay: qRT-PCR quantification of AmpC induction; type: cell-based, P. aeruginosa; details: IPM 8, FOX 64, AVI 16 µg/mL, relative to strain basal t=0
Protocol: as §3, §4

[8] = tested on: ampC mRNA in PAΔdacB (PBP4 knockout mutant); assay: qRT-PCR quantification of AmpC induction; type: cell-based, P. aeruginosa; details: 180 min; IPM 8, FOX 64 µg/mL
Protocol: as §3, §4

[9] = tested on: ampC mRNA in 110-G8 (AmpC DelG229–E247; PDC-223, CAZ/AVI-resistant ST175 clinical isolate); assay: qRT-PCR quantification of AmpC induction; type: cell-based, P. aeruginosa; details: IPM 8, FOX 64, AVI 16 µg/mL, relative to strain basal t=0
Protocol: as §3, §4

[10] = tested on: ampC mRNA in 101-E5 (CAZ/AVI-sensitive ST175 clinical isolate); assay: qRT-PCR quantification of AmpC induction; type: cell-based, P. aeruginosa; details: IPM 8, FOX 64, AVI 16 µg/mL, relative to strain basal t=0
Protocol: as §3, §4

[11] = tested on: ampC mRNA in 103-H8 (AmpC E247K; PDC-221, CAZ/AVI-resistant ST175 clinical isolate); assay: qRT-PCR quantification of AmpC induction; type: cell-based, P. aeruginosa; details: IPM 8, FOX 64, AVI 16 µg/mL, relative to strain basal t=0
Protocol: as §3, §4

[12] = molecular target: T3, PBP3 (Pseudomonas aeruginosa, UniProt G3XD46); assay: biochemical; type: binding, P. aeruginosa PAO1; details: PAO1 membranes 0.5 mg/mL, 30 min, 25 µM bocillin FL; read-out: Mean IC50 ± SD, PBP 3 (converted)
T3 construct: PBP-containing membranes were isolated by ultracentrifugation; endogenous in cells; host or cells: P. aeruginosa PAO1 wild type (membrane preparations or intact cells)
Protocol: as §1, §2

T2 sequence (Q07806 whole entry): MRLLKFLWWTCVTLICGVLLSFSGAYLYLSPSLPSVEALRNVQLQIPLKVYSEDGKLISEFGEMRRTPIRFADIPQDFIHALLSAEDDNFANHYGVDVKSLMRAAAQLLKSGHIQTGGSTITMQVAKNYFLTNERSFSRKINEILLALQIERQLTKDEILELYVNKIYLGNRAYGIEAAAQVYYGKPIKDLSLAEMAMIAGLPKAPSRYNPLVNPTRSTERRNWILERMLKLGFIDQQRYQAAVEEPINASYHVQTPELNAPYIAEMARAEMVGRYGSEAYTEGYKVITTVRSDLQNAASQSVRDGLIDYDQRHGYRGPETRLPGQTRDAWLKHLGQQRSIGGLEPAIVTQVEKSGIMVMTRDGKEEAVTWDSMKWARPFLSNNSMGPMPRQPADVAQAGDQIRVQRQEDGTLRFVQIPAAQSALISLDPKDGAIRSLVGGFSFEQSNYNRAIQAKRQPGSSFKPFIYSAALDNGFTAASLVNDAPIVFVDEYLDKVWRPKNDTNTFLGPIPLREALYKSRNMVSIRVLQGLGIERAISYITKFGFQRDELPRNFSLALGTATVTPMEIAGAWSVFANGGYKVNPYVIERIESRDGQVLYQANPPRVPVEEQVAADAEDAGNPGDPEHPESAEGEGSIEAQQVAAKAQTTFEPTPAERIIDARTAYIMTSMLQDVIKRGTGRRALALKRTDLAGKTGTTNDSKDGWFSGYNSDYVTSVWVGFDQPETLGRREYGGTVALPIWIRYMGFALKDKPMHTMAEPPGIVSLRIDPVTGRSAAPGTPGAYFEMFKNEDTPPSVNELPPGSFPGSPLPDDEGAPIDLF
T1 sequence (Q9X6V3 entry or part of it): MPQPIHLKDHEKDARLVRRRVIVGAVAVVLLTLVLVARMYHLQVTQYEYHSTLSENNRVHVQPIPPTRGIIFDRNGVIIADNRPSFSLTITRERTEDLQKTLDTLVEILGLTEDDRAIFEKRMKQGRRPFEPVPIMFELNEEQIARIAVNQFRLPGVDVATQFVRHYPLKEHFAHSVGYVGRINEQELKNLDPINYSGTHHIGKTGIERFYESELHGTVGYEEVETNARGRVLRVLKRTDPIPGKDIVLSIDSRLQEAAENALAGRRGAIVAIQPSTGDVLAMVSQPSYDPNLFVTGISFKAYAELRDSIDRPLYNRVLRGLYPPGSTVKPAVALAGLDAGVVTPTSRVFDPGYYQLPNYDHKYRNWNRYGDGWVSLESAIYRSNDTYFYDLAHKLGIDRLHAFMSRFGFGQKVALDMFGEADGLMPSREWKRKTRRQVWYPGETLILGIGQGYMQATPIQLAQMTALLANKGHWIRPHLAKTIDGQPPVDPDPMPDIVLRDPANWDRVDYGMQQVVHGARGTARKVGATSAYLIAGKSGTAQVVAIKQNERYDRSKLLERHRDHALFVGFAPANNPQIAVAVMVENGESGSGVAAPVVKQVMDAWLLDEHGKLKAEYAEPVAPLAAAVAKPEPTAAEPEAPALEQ
Chain of PBP5/6 (G3XD74 entry or part of it): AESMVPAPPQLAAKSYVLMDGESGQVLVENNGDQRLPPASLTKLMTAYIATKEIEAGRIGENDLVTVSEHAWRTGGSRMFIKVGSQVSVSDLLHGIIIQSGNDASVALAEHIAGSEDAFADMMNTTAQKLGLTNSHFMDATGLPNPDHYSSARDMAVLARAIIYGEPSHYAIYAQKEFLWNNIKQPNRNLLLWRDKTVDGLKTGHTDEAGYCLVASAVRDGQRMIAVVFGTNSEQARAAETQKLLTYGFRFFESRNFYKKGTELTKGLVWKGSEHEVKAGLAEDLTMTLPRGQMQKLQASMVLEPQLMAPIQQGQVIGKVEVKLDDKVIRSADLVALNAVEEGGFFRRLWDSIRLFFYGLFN
Chain of PBP1b (G3XD31 entry or part of it): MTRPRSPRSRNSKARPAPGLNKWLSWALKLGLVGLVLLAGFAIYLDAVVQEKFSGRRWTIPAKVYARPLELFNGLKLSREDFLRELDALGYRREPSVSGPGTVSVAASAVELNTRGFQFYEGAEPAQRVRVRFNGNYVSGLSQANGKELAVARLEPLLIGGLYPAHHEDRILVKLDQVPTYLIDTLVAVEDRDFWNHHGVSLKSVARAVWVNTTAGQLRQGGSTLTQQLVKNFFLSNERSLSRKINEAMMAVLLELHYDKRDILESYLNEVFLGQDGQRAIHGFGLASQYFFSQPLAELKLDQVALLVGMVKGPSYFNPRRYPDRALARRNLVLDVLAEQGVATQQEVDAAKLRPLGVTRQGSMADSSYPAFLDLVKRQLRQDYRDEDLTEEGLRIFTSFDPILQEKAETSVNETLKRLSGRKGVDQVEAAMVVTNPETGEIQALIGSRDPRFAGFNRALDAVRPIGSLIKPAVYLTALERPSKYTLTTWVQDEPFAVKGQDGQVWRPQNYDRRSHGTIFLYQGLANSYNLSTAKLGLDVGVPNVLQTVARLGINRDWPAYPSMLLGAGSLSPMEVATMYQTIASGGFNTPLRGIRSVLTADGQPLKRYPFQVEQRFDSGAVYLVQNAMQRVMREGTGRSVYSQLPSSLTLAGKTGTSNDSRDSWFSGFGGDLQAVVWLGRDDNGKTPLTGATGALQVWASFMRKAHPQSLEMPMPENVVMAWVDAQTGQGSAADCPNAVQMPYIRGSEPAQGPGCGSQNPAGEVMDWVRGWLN
Chain of PBP4 (Q9HZG1 entry or part of it): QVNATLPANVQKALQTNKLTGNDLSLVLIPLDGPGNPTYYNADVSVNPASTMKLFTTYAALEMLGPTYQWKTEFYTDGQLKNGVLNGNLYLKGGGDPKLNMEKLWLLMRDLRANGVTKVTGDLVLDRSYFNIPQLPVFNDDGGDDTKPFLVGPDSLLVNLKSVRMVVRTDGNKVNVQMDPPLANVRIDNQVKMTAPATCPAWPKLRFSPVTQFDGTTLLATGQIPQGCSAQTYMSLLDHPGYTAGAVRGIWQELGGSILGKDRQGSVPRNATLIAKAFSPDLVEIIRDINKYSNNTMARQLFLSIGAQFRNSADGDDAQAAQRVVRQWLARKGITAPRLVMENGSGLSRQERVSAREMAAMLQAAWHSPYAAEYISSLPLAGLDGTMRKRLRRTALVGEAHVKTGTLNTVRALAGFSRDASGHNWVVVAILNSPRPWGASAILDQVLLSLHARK
T3 sequence (G3XD46 whole entry): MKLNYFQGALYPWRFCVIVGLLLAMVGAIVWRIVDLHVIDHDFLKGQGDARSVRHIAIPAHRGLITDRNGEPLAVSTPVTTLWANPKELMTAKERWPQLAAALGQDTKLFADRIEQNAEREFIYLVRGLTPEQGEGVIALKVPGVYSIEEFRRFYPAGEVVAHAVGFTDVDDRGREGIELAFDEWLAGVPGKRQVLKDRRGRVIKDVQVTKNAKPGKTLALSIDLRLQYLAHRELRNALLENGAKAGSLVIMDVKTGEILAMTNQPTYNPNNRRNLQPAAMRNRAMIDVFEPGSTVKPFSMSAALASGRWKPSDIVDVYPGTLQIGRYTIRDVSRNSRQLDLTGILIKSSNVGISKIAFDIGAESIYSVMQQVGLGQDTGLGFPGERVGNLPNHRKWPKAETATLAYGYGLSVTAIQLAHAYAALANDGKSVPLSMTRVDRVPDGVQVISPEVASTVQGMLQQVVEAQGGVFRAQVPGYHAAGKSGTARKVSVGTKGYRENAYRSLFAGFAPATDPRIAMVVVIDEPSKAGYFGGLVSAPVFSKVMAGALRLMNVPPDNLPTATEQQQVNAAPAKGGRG

CO[C@@]1(NC(=O)Cc2cccs2)C(=O)N2C(C(=O)O)=C(COC(N)=O)CS[C@@H]21 [Cefoxitin]
IC50 [1]: 34.2 µM
IC50 [2]: 3.51 µM
IC50 [3]: 18.2 µM
IC50 [4]: 21.1 µM
Mean IC50 ± SD, PBP 1b [5]: no PBP1b binding was detected
IC50 ([5]; read-out: Mean IC50 ± SD, PBP 1b (converted)): > 74.9 µM
Relative ampC expression ([6]; 109-E9, 0 min): 0.9
Relative ampC expression ([6]; 109-E9, 30 min): 4.1
Relative ampC expression ([6]; 109-E9, 180 min): 8.8 ± 7.9
Relative ampC expression ([6]; 109-E9, 180 min, listed as FOX): 8.8
Relative ampC expression ([7]; PAO1, 0 min): 0.9
Relative ampC expression ([7]; PAO1, 30 min): 3100
Relative ampC expression ([7]; PAO1, 180 min): 2500
ampC inducibility of PBP4 (dacB) mutant, fold lower than parental strain PAO1 [8]: 32 fold
Relative ampC expression ([9]; 110-G8, 0 min): 3.3
Relative ampC expression ([9]; 110-G8, 30 min): 51.8 ± 13.2
Relative ampC expression ([9]; 110-G8, 30 min, listed as FOX): 51.8
Relative ampC expression ([9]; 110-G8, 180 min): 29.2 ± 13.1
Relative ampC expression ([9]; 110-G8, 180 min, listed as FOX): 29.2
Relative ampC expression ([10]; 101-E5, 0 min): 3.7
Relative ampC expression ([10]; 101-E5, 30 min): 1.7
Relative ampC expression ([10]; 101-E5, 180 min): 5.7 ± 2.8
Relative ampC expression ([10]; 101-E5, 180 min, listed as FOX): 5.7
Relative ampC expression ([11]; 103-H8, 0 min): 1.4
Relative ampC expression ([11]; 103-H8, 30 min): 14.0
Relative ampC expression ([11]; 103-H8, 180 min): 50 ± 36.5
Relative ampC expression ([11]; 103-H8, 180 min, listed as FOX): 50.0
IC50 [12]: 25 µM

C[C@@H](O)[C@H]1C(=O)N2C(C(=O)O)=C(SCCN=CN)C[C@H]12 [Imipenem]
IC50 [1]: < 0.835 µM
IC50 [3]: < 0.835 µM
IC50 [4]: 1.67 µM
